From PMC9298630 (Journal of Food and Drug Analysis, 2018)
Read-outs that look alike come from different tables or passages of the source. Each block holds one compound with its values, some of them ahead of it.

Key:
[1] = S. Chinese remedy-treated rats; cited from earlier work
[2] = cited from earlier work
[3] = for AUC0–t / AUC0–∞ / CL/F (apparent clearance) / Cmax / Tmax / Vd/F / t1/2: rats, mean ± SEM
[4] = Stability of analytes in stored plasma samples; conditions: −80 °C, rat plasma
[5] = oral suspension (40 mg/ml), 7 days, participants; cited from earlier work
[6] = test system: rat liver microsomal NFO activity (CYP3A); experiment: Inhibition of rat liver microsomal nifedipine oxidation; assay type: in vitro ADME; conditions: 100 μM, 10-min NADPH-fortified pre-incubation
[7] = oral nifedipine 3 mg/kg 1 h after SY 0.95 g/kg
[8] = oral nifedipine 3 mg/kg 1 h after SY […]
[9] = oral nifedipine 3 mg/kg together with ketoconazole 30 mg/kg
[10] = oral nifedipine 3 mg/kg, control

SMILES: COc1cc2c(c(OC)c1OC)-c1c(cc3c(c1OC)OCO3)CC(C)C(C)C2 (stereo not drawn) [schisandrin B]
Tmax [1]: about 4 h

SMILES: COC(=O)c1c(C)nc(C)c(C(=O)OC)c1-c1ccccc1[N+](=O)[O-] [Dehydronifedipine, dehydronifedipine]
AUC ratio of the dehydronifedipine to nifedipine ([2]; rats treated with nifedipine suspension (in water)): 38% | half-life (terminal) ([2]; rats, nifedipine suspended in water (10 mg/ml), oral dose 10 mg/kg): 15.7 h | AUC0–t ratio of dehydronifedipine to nifedipine ([2]; rats, ref 6 (Han et al.)): 2.7 ± 0.3% | AUC0–t ratio of dehydronifedipine to nifedipine ([3]; control rats, oral nifedipine 3 mg/kg in 50% PEG 400): 2.7 ± 0.5% | AUC0–t [3, 7]: 0.11 ± 0.01 µg·h/mL | AUC0–∞ [3, 7]: 0.13 ± 0.02 µg·h/mL | CL/F (apparent clearance) [3, 7]: 405 ± 53.3 mL/min/kg | Cmax [3, 7]: 50 ± 10 ng/mL | Tmax [3, 7]: 0.29 ± 0.05 h | Vd/F [3, 7]: 61.0 ± 13.3 L/kg | t1/2 [3, 7]: 1.9 ± 0.5 h | AUC0–t [3, 8]: 0.13 ± 0.02 µg·h/mL | AUC0–∞ [3, 8]: 0.24 ± 0.04 µg·h/mL | CL/F (apparent clearance) [3, 8]: 253 ± 55 mL/min/kg | Cmax [3, 8]: 40 ± 0 ng/mL | Tmax [3, 8]: 0.58 ± 0.08 h | Vd/F [3, 8]: 89.7 ± 14.4 L/kg | t1/2 [3, 8]: 4.8 ± 0.8 h | AUC0–t [3, 9]: 0.46 ± 0.11 ^* h·μg/ml | AUC0–∞ [3, 9]: 1.77 ± 0.53 ^* h·μg/ml | CL/F (apparent clearance) [3, 9]: 43.3 ± 16.7 mL/min/kg | Cmax [3, 9]: 100 ± 20 ng/mL | Tmax [3, 9]: 1.80 ± 0.55 h | Vd/F [3, 9]: 34.3 ± 7.4 L/kg | t1/2 [3, 9]: 12.3 ± 3.9 h | AUC0–t [3, 10]: 0.12 ± 0.02 µg·h/mL | AUC0–∞ [3, 10]: 0.14 ± 0.02 µg·h/mL | CL/F (apparent clearance) [3, 10]: 395 ± 48.3 mL/min/kg | Cmax [3, 10]: 40 ± 10 ng/mL | Tmax [3, 10]: 0.70 ± 0.12 h | Vd/F [3, 10]: 68.9 ± 9.0 L/kg | t1/2 [3, 10]: 2.0 ± 0.1 h | 14-day stability in plasma samples [4]: 99.6–100.8%

SMILES: CC[C@@H]([C@H](C)O)n1ncn(-c2ccc(N3CCN(c4ccc(OC[C@@H]5CO[C@@](Cn6cncn6)(c6ccc(F)cc6F)C5)cc4)CC3)cc2)c1=O [posaconazole]
mean Cmax at 200 mg 4 times daily relative to 400 mg twice daily [5]: 2 fold

decrease of NFO activity [6]: 48%
SMILES: COc1cc2c(c(OC)c1OC)-c1c(cc(OC)c(OC)c1OC)C[C@H](C)[C@H](C)C2 [schisandrin A]
